The record followed here is patent US11912723B2, “KRAS modulators and uses thereof” (Quanta Therapeutics, Inc., priority 2022, dated 2024).

The experiment has as its target T1, GST-tagged KRAS G12D (2-169) (Homo sapiens, UniProt P01116, G12D).
T1 construct: GST-tagged KRAS^G12D (2-169, Reaction Biology, MSC-11-539); purchased Reaction Biology MSC-11-539 (KRAS G12D); MSC-11-502 (SOS1cat)
The experiment can be described thus: Nucleotide exchange assay (NEA), HTRF of SOS-mediated GTP-DY-647P1 binding. Format: biochemical. The note with it: 5 nM GST-KRAS G12D, 20 nM SOScat, 150 nM GTP; compound 1 h at RT. The method, boiled down:
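SOS1cat (564-1049)-driven loading of GTP-DY-647P1 onto KRAS G12D, read by HTRF with anti-GST Tb cryptate donor; compound preincubated with KRAS 1 h at RT. Final 5 nM KRAS, 20 nM SOScat, 150 nM GTP, pH 7.3 HEPES buffer; read up to 90 min at RT. Blanked to no-SOS1; 4-parameter fit of % inhibition.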

Usually IC50 stands for the concentration needed to halve the response being measured. Read a high IC50 as weaker potency in that assay.

T1 sequence (P01116 2-169 isoform P01116-2 G12D): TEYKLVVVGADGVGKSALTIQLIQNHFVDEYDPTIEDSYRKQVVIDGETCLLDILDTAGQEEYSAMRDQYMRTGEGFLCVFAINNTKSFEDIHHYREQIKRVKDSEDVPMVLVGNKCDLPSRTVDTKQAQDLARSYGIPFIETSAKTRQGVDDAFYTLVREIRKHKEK

As for `CN1Cc2c(nc(OC[C@@]34CCCN3C[C@H](F)C4)nc2N2CCCCCC2)C[C@]12CCc1c(Cl)cccc12` [Compound 28A, (7S)-4-(azepan-1-yl)-4′-chloro-2-[[(2R,8S)-2-fluoro-1,2,3,5,6,7-hexahydropyrrolizin-8-yl]methoxy]-6-methyl-spiro[5,8-dihydropyrido[4,3-d]pyrimidine-7,1′-indane]], the IC50 lay within 1000 to 20000 nM. With `N#CNC1CCCN(c2nc(OC[C@@]34CCCN3C[C@H](F)C4)nc3c2COC2(CCc4c(Cl)cccc42)C3)C1` (stereo partly drawn) [Compound 29, [1-[4′-chloro-2-[[(2R,8S)-2-fluoro-1,2,3,5,6,7-hexahydropyrrolizin-8-yl]methoxy]spiro[5,8-dihydropyrano[4,3-d]pyrimidine-7,1′-indane]-4-yl]-3-piperidyl]cyanamide] the figure was 100 to 1000 nM; with `Oc1ccc2c(c1)C1(CCC2)Cc2nc(OC[C@@]34CCCN3C[C@H](F)C4)nc(N3CCCCCC3)c2CO1` (single isomer, unassigned) [Compound 7], 1000 to 20000 nM. For the compound `CN(C)C(=O)c1nn2c(c1Cl)CN(c1nc(OC[C@@]34CCCN3C[C@H](F)C4)nc3c1CN(C)[C@@]1(CCc4c(Cl)cccc41)C3)CCC2` [Compound 55, 3-chloro-5-((S)-4-chloro-2′-(((2R,7aS)-2-fluorotetrahydro-1H-pyrrolizin-7a(5H)-yl)methoxy)-6′-methyl-2,3,5′,8′-tetrahydro-6′H-spiro[indene-1,7′-pyrido[4,3-d]pyrimidin]-4′-yl)-N,N-dimethyl-5,6,7,8-tetrahydro-4H-pyrazolo[1,5-a][1,4]diazepine-2-carboxamide], the IC50 is less than 10 nM. With `OC1CCCN(c2nc(OC[C@@]34CCCN3C[C@H](F)C4)nc3c2COC2(CCCc4ccc(Br)cc42)C3)CC1` (stereo partly drawn) [Compound 4, 1-[7′-bromo-2-[[(2R,8S)-2-fluoro-1,2,3,5,6,7-hexahydropyrrolizin-8-yl]methoxy]spiro[5,8-dihydropyrano[4,3-d]pyrimidine-7,1′-tetralin]-4-yl]azepan-4-ol] the figure was 1000 to 20000 nM; with `CN(C)C(=O)c1cc2n(n1)CCCN(c1nc(OC[C@@]34CCCN3C[C@H](F)C4)nc3c1CO[C@]1(CCc4c(Cl)cccc41)C3)C2` [Compound 27B, 5-[(7R)-4′-chloro-2-[[(2R,8S)-2-fluoro-1,2,3,5,6,7-hexahydropyrrolizin-8-yl]methoxy]spiro[5,8-dihydropyrano[4,3-d]pyrimidine-7,1′-indane]-4-yl]-N,N-dimethyl-4,6,7,8-tetrahydropyrazolo[1,5-a][1,4]diazepine-2-carboxamide], less than 10 nM; with `CN1CCN(C(=O)c2nn3c(c2Cl)CN(c2nc(OC[C@@]45CCCN4C[C@H](F)C5)nc4c2CO[C@@]2(CCc5c(Cl)cccc52)C4)CCC3)CC1` [Compound 50, [3-chloro-5-[(7S)-4′-chloro-2-[[(2R,8S)-2-fluoro-1,2,3,5,6,7-hexahydropyrrolizin-8-yl]methoxy]spiro[5,8-dihydropyrano[4,3-d]pyrimidine-7,1′-indane]-4-yl]-4,6,7,8-tetrahydropyrazolo[1,5-a][1,4]diazepin-2-yl]-(4-methylpiperazin-1-yl)methanone], less than 10 nM. Compound `CN(C)C(=O)c1cc2n(n1)CCCN(c1nc(OC[C@@]34CCCN3C[C@H](F)C4)nc3c1COC1(CCCc4c(Cl)cc(O)cc41)C3)C2` (mixture of isomers) [Compound 43, 5-[5′-chloro-7′-hydroxy-2-[[rac-(2R,8S)-2-fluoro-1,2,3,5,6,7-hexahydropyrrolizin-8-yl]methoxy]spiro[5,8-dihydropyrano[4,3-d]pyrimidine-7,1′-tetralin]-4-yl]-N,N-dimethyl-4,6,7,8-tetrahydropyrazolo[1,5-a][1,4]diazepine-2-carboxamide] came in with an IC50 of 10 to 100 nM.
